One substance from patent US6642003B2, “Human glucose-dependent insulin-secreting cell line” (Cedars-Sinai Medical Center, priority 2001, dated 2003) can be followed below.

In this experiment the test system is PANC-1 cells. Nature of the experiment: Immunocytochemistry for insulin, parental PANC-1 cells. It counts as cell-based, human. Particulars: presence or absence of GLP-1. The procedure: Cells were cultured on monocoated chamber slides (Nalge Nunc International; Naperville, Ill.) in the presence of GLP-1 (10 nM), or vehicle, for 72 h.
For the detection of insulin, cells were washed and fixed with 3% paraformaldehyde for 4 h, at room temperature in PBS, solubilized with 0.1% (vol/vol) Triton X-100 in PBS for 5 min. Cells were then incubated sequentially with an anti-insulin antibody and a secondary antibody, as described by the manufacturer (Biomeda Corp.; Foster City, Calif.). The cells were examined using a Ziess Axiophoto microscope (New York, N.Y.).

As to glucagon-like peptide-1 [GLP-1], the insulin immunostaining result is “No positive insulin immunostaining”.
